Numbers after ± are expanded uncertainties.
Experiments:
[1] = Molar enthalpy of transition or fusion; conditions: DSC
[2] = DTA; for Normal melting temperature: Crystal 1

Compound | Molar enthalpy of transition or fusion ([1]; Crystal 1) | Molar enthalpy of transition or fusion ([1]; Crystal 2) | Normal melting temperature [2] | Triple point temperature ([2]; Crystal 2) | Molar enthalpy of transition or fusion ([1]; Crystal 4) | Molar enthalpy of transition or fusion ([1]; Crystal 5) | Triple point temperature ([2]; Crystal 3) | Triple point temperature ([2]; Crystal 4) | Triple point temperature ([2]; Crystal 5) | Molar enthalpy of transition or fusion ([1]; Crystal 3)
CCC(=O)[O-].[K+] [potassium propanoate] | 4.88 ± 0.134 kcal/mol | 0.429 ± 0.0263 kcal/mol | 363.8 ± 0.5 °C | 352.1 ± 0.5 K | – | – | – | – | – | –
CCCCCCCCCC(=O)[O-].[K+] [potassium decanoate] | 0.402 ± 0.0502 kcal/mol | – | 418.4 ± 0.5 °C | 546.5 ± 0.5 K | 0.855 ± 0.0502 kcal/mol | 1.36 ± 0.1 kcal/mol | 528 ± 1 K | 383 ± 1 K | 346.3 ± 0.5 K | –
CCCCCCCC(=O)[O-].[K+] [potassium octanoate] | 0.523 ± 0.043 kcal/mol | 4.01 ± 0.131 kcal/mol | 435.5 ± 0.5 °C | 562.8 ± 0.5 K | – | – | 327.8 ± 0.5 K | – | – | 2.4 ± 0.086 kcal/mol
CCCC(=O)[O-].[K+] [potassium butanoate] | 1.18 ± 0.0598 kcal/mol | 2.56 ± 0.0908 kcal/mol | 394 ± 0.5 °C | 623.1 ± 0.5 K | 0.166 ± 0.0311 kcal/mol | – | 550 ± 1 K | 454.7 ± 0.5 K | – | 0.814 ± 0.0598 kcal/mol
CCCCC(=O)[O-].[K+] [potassium pentanoate] | 1.14 ± 0.0669 kcal/mol | 4.16 ± 0.134 kcal/mol | 443.6 ± 0.5 °C | 585.4 ± 0.5 K | – | – | 397.6 ± 0.5 K | – | – | 0.0938 ± 0.0311 kcal/mol
CCCCCC(=O)[O-].[K+] [potassium hexanoate] | 0.922 ± 0.0359 kcal/mol | 3.98 ± 0.11 kcal/mol | 450.5 ± 0.8 °C | 582.4 ± 0.5 K | – | – | – | – | – | –
CCCCCCC(=O)[O-].[K+] [potassium heptanoate] | 0.804 ± 0.0813 kcal/mol | 4.22 ± 0.12 kcal/mol | 449 ± 1 °C | 571 ± 0.5 K | – | – | 333.7 ± 0.5 K | – | – | 3.14 ± 0.12 kcal/mol
CCCCCCCCCCC(=O)[O-].[K+] [potassium undecanoate] | 0.375 ± 0.0526 kcal/mol | 2.9 ± 0.108 kcal/mol | 407.6 ± 0.5 °C | 542.5 ± 0.5 K | 2.95 ± 0.108 kcal/mol | – | 410 ± 1 K | 354.6 ± 0.5 K | – | 2.15 ± 0.108 kcal/mol
O=C[O-].[K+] [potassium formate] | 2.79 ± 0.1 kcal/mol | 0.137 ± 0.0311 kcal/mol | 169.1 ± 0.5 °C | 415.8 ± 0.5 K | – | – | – | – | – | –
CC(=O)[O-].[K+] [potassium ethanoate] | 3.92 ± 0.117 kcal/mol | 0.0704 ± 0.0234 kcal/mol | 305.5 ± 0.5 °C | 425 ± 1 K | – | – | 331.8 ± 0.5 K | – | – | 0.0164 ± 0.0234 kcal/mol
CCCCCCCCCCCC(=O)[O-].[K+] [dodecanoic acid, potassium salt] | 0.342 ± 0.0574 kcal/mol | 2.79 ± 0.115 kcal/mol | 399 ± 0.5 °C | 543.4 ± 0.5 K | 2.28 ± 0.115 kcal/mol | 2.96 ± 0.115 kcal/mol | 489 ± 1 K | 405.5 ± 0.5 K | 328.1 ± 0.5 K | 1.31 ± 0.0574 kcal/mol
CCCCCCCCC(=O)[O-].[K+] [potassium nonanoate] | 0.469 ± 0.0478 kcal/mol | 3.47 ± 0.141 kcal/mol | 431.4 ± 0.5 °C | 544.9 ± 0.5 K | – | – | 367.6 ± 0.5 K | – | – | 3.75 ± 0.141 kcal/mol
